We go through 65 compounds from patent US12642270B2, “Substituted thiophene carboxamides, thiophene carboxylic acids and derivatives thereof” (Bayer Aktiengesellschaft, priority 2019, dated 2026).

The structures appear in SMILES notation.

The nature of one series: Log P by HPLC on reversed phase columns (EEC directive 79/831 Annex V.A8). Conditions: method [a]. Type of series: physicochemical. A digest of the protocol:
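Reversed-phase HPLC per EEC 79/831 Annex V.A8, LC-UV with 10→95% acetonitrile linear gradient; eluent [a] 0.1% formic acid (acidic), [b] 0.001 M ammonium acetate (neutral), [c] 0.1% phosphoric acid (acidic). Calibrated with C3–C16 straight-chain alkan-2-ones, linear interpolation of retention times; multiple values joined by "+".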
In the case of `COC(=O)C(CCSC)NC(=O)c1sc(C#N)c(Cl)c1Cl` (centres unmarked) [1.0791], the LogP was 3.26^[a]. In the case of `CCOC(=O)C(COC)NC(=O)c1sc(C#N)c(Br)c1C` (centres unmarked) [1.0792], the LogP was 2.80^[a]. The same measure, in the same setting: then `CCOC(=O)CNC(=O)c1sc(C)c(Cl)c1F` [1.0793], with 2.54^[a]; and `CCOC(=O)C(CCSC)NC(=O)c1sc(Br)c(Br)c1C#N` (centres unmarked) [1.0794], with 3.51^[a]. Turning to `CCOC(=O)C1(NC(=O)c2sc(Br)c(Br)c2F)CSC1` [1.0795], the LogP is 3.59^[a]. On the same count and under the same terms, as for `N#Cc1sc(C(=O)NCC(N)=O)c(Cl)c1Cl` [1.0796], the figure is 1.48^[a]; as for `CCOC(=O)CNC(=O)c1sc(Br)c(Br)c1C#N` [1.0797], 2.59^[a]; as for `COC(=O)CNC(=O)c1sc(Br)c(Br)c1C#N` [1.0798], 2.24^[a].

In the case of `CCOC(=O)C1(NC(=O)c2sc(Br)c(Br)c2C#N)CC1` [1.0799], the LogP was 2.73^[a]. Same read-out and setting: as for `COC(=O)C1(NC(=O)c2sc(Br)c(Br)c2C#N)CC1` [1.0800], the figure is 2.40^[a]; as for `COC(=O)C(C)(C)NC(=O)c1sc(Br)c(Br)c1C#N` [1.0801], 2.81^[a]. Same read-out and setting: then `N#CCNC(=O)c1sc(Br)c(Br)c1C#N` [1.0802], with 2.11^[a]; and `CCOC(=O)C(CO)NC(=O)c1sc(Br)c(Br)c1C#N` (centres unmarked) [1.0803], with 2.29^[a].

With `CCOC(=O)CN(OC)C(=O)c1sc(Br)c(Br)c1Cl` [1.0804], the LogP is 3.67^[a]. As to `CCOC(=O)C(NC(=O)c1sc(Br)c(Br)c1C#N)C(=O)OCC` [1.0805], the LogP is 3.39^[a].

Turning to `COC(=O)C1(NC(=O)c2sc(Br)c(Br)c2C#N)CCC1` [1.0806], the LogP is 2.87^[a].

Turning to `N#Cc1c(C(=O)NC2(C(N)=O)CC2)sc(Cl)c1Cl` [1.0807], the LogP was 1.71^[a]. Take `CCOC(=O)C(CO)NC(=O)c1sc(C#N)c(Cl)c1Cl` (centres unmarked) [1.0809]: the LogP was 2.33^[a].

As to `CCOC(=O)C(CO)NC(=O)c1sc(Cl)c(Cl)c1C#N` (centres unmarked) [1.0810], the LogP is 2.23^[a]. Still for that read-out and setting: as for `CCOC(=O)C(CCSC)NC(=O)c1sc(Br)c(Br)c1F` (centres unmarked) [1.0812], the figure is 4.05^[a]; as for `CCOC(=O)C(CCSC)NC(=O)c1sc(C#N)c(Cl)c1Cl` (centres unmarked) [1.0813], 3.60^[a]; as for `CCOC(=O)C(CCSC)NC(=O)c1sc(Cl)c(Cl)c1C#N` (centres unmarked) [1.0814], 3.46^[a]. For `CCOC(=O)C1(NC(=O)c2sc(Br)c(Br)c2C#N)CCC1` [1.0815], the LogP is 3.23^[a]. The same measure, in the same setting: then `CCOC(=O)[C@H](CO)NC(=O)c1sc(Cl)c(Cl)c1Br` [1.0816], with 2.84^[a]; and `CCOC(=O)[C@H](CO)NC(=O)c1sc(Br)c(Br)c1Cl` [1.0817], with 2.84^[a]; and `CCOC(=O)C(C)NC(=O)c1sc(C#N)c(Br)c1C` (centres unmarked) [1.0823], with 2.80^[a]. Same read-out and setting: then `CCOC(=O)C(C)NC(=O)c1sc(Br)c(Br)c1Cl` (centres unmarked) [1.0824], with 4.01^[a]; and `COC(=O)CNC(=O)c1sc(I)c(Cl)c1Cl` [1.0826], with 2.82^[a]; and `CCOC(=O)CNC(=O)c1sc(I)c(Cl)c1Cl` [1.0827], with 3.24^[a]. For `COC(=O)C1(NC(=O)c2sc(I)c(Cl)c2Cl)CC1` [1.0828], the LogP is 3.01^[a]. Turning to `CCOC(=O)[C@H](CO)NC(=O)c1sc(Cl)c(Cl)c1C#N` [1.0830], the LogP was 2.22^[a]. Still for that read-out and setting: as for `CCOC(=O)[C@H](CO)NC(=O)c1sc(C#N)c(Cl)c1Cl` [1.0831], the figure is 2.26^[a]; as for `CCOC(=O)[C@H](CO)NC(=O)c1sc(Br)c(Br)c1F` [1.0832], 2.54^[a]; as for `CCOC(=O)[C@H](CO)NC(=O)c1sc(C#N)c(Cl)c1C` [1.0833], 2.07^[a].

Consider `CCOC(=O)C(CO)NC(=O)c1sc(C#N)c(Br)c1C` (centres unmarked) [1.0834], for which the LogP is 2.16^[a].

Regarding `CCOC(=O)C(CO)NC(=O)c1sc(C#N)c(Cl)c1C` (centres unmarked) [1.0835], the LogP was 2.12^[a]. With `COC(=O)C(CCSC)NC(=O)c1sc(C#N)c(Cl)c1C` (centres unmarked) [1.0836], the LogP is 3.03^[a]. On the same count and under the same terms, as for `N#CCNC(=O)c1sc(Br)c(Cl)c1Br` [1.0837], the figure is 2.75^[a]; as for `CCOC(=O)C(CCSC)NC(=O)c1sc(Br)c(Cl)c1Br` (centres unmarked) [1.0838], 4.55^[a]; as for `COC(=O)C(C)(C)NC(=O)c1sc(Br)c(Cl)c1Br` [1.0840], 3.81^[a]. Still for that read-out and setting: then `CCOC(=O)[C@H](CO)NC(=O)c1sc(Br)c(Cl)c1C` [1.0841], with 2.59^[a]. Same read-out and setting: then `CCOC(=O)[C@H](CO)NC(=O)c1sc(Cl)c(Br)c1C` [1.0842], with 2.62^[a]; and `CCOC(=O)[C@H](CO)NC(=O)c1sc(Br)c(Br)c1C` [1.0843], with 2.64^[a]; and `CCOC(=O)C(CO)NC(=O)c1sc(Br)c(Cl)c1C` (centres unmarked) [1.0844], with 2.60^[a]. In the case of `CCOC(=O)CN(OC)C(=O)c1sc(C#N)c(Cl)c1Cl` [1.0845], the LogP was 3.06^[a].

The same series, now with this note: method marked [a].
In the case of `CCOC(=O)C(NC(=O)c1sc(C#N)c(Cl)c1C)C(=O)OCC` [1.0771], the LogP was 3.20^[a]. On the same count and under the same terms, then `CCOC(=O)C(NC(=O)c1sc(Br)c(Br)c1F)C(=O)OCC` [1.0772], with 3.91^[a]; and `CCOC(=O)C(NC(=O)c1sc(C#N)c(Br)c1C)C(=O)OCC` [1.0773], with 3.23^[a]. On the same count and under the same terms, as for `CCOC(=O)C(NC(=O)c1sc(Cl)c(Cl)c1C#N)C(=O)OCC` [1.0774], the figure is 3.40^[a]; as for `CCOC(=O)C(NC(=O)c1sc(Cl)c(Cl)c1Br)C(=O)OCC` [1.0775], 4.30^[a]. Still for that read-out and setting: as for `CCOC(=O)C(COC)NC(=O)c1sc(Br)c(Br)c1Cl` (centres unmarked) [1.0776], the figure is 3.91^[a]; as for `CCOC(=O)C(COC)NC(=O)c1sc(Cl)c(Cl)c1Br` (centres unmarked) [1.0777], 3.94^[a]; as for `COC(=O)C(CCSC)NC(=O)c1sc(Br)c(Br)c1C#N` (centres unmarked) [1.0778], 3.37^[a].

With `CCOC(=O)C(CO)NC(=O)c1sc(Br)c(Br)c1Cl` (centres unmarked) [1.0779], the LogP was 2.89^[a].

Consider `CCOC(=O)C(CO)NC(=O)c1sc(Cl)c(Cl)c1Br` (centres unmarked) [1.0780], for which the LogP is 3.06^[a]. On the same count and under the same terms, as for `CCOC(=O)CNC(=O)c1sc(Br)c(Cl)c1Br` [1.0781], the figure is 3.40^[a]; as for `CCOC(=O)C1(NC(=O)c2sc(Br)c(Cl)c2Br)CC1` [1.0782], 3.56^[a]. Same read-out and setting: as for `CCOC(=O)C(NC(=O)c1sc(Br)c(Br)c1Cl)C(=O)OCC` [1.0783], the figure is 4.33^[a]; as for `C#CCOC(=O)C1(NC(=O)c2sc(C#N)c(Cl)c2Cl)CC1` [1.0784], 2.73^[a]; as for `C#CCOC(=O)C1(NC(=O)c2sc(Cl)c(Cl)c2C#N)CC1` [1.0785], 2.65^[a]. The same measure, in the same setting: then `NC(=O)C1(NC(=O)c2sc(Cl)c(Cl)c2Br)CC1` [1.0786], with 2.08^[a]; and `NC(=O)C1(NC(=O)c2sc(Br)c(Br)c2Cl)CC1` [1.0787], with 2.10^[a]; and `N#Cc1sc(C(=O)NC2(C(N)=O)CC2)c(Cl)c1Cl` [1.0788], with 1.67^[a]. As for `Cc1c(C(=O)NC2(C(N)=O)CC2)sc(C#N)c1Br` [1.0789], the LogP was 1.61^[a].

Regarding `CCOC(=O)CN(OC)C(=O)c1sc(Cl)c(Cl)c1Br` [1.0790], the LogP is 3.71^[a].
